Results reported in patent US8633245B2, “PAI-1 inhibitor” (Institute of Medicinal Molecular Design, Inc., priority 2008, dated 2014).

Assays:
recombinant human PAI-1 [1] = biological target: T1, recombinant human PAI-1 (Homo sapiens, UniProt P05121); experiment: Test Example 1: human PAI-1 inhibitory activity (tPA fluorogenic substrate, pH 7.5 Tris buffer); format: biochemical; conditions: Tris buffer
T1 construct: purchased Molecular Innovations, Inc
Description: 50 mM Tris, 150 mM NaCl, 10 μg/ml BSA, 0.01% Tween80 (SIGMA-ALDRICH Corporation)

recombinant human PAI-1 [2] = biological target: T1, recombinant human PAI-1; experiment: Test Example 2: human PAI-1 inhibitory activity (tPA fluorogenic substrate, pH 7.4 HEPES buffer); format: biochemical; conditions: human PAI-1
Description: 0.1 M HEPES, 0.1 M NaCl. 1 mM EDTA. 0.1% Polyethylene glycol 8,000 (Hampton Research Corporation),
2 mM Dimethyldecylphoshine oxide [Apo-10] (Fluka Corporation)

[3] = compound concentration 0.1 μM, 0.1 µM
[4] = compound concentration 0.3 μM, 0.3 µM
[5] = compound concentration 1 μM, 1 µM
[6] = compound concentration 3 μM, 3 µM

T1 sequence (P05121 24-402): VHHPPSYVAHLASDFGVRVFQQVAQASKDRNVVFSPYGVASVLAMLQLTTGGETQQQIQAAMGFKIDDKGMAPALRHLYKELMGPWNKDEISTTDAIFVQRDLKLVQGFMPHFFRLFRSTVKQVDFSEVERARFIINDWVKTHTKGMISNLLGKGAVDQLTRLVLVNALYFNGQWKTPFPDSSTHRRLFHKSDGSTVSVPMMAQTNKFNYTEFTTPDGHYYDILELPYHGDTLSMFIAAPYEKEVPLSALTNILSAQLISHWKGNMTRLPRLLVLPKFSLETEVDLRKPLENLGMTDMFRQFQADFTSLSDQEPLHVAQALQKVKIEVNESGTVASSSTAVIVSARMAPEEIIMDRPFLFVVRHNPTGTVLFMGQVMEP

Row | SMILES | Inhibition Rate of PAI-1 Activity (%) (recombinant human PAI-1 [1]; Compound Concentration 10 μM) | Inhibition Rate of PAI-1 Activity (%) (recombinant human PAI-1 [2]; compound concentration 0.1 μM) | Inhibition Rate of PAI-1 Activity (%) (recombinant human PAI-1 [2]; compound concentration 0.3 μM) | Inhibition Rate of PAI-1 Activity (%) (recombinant human PAI-1 [2]; compound concentration 1 μM) | Inhibition Rate of PAI-1 Activity (%) (recombinant human PAI-1 [2]; compound concentration 3 μM) | also measured
1 | O=C(O)Cc1cc(-c2ccc(OC(F)(F)F)cc2)ccc1OCc1ccccc1 [Compound 1] | 31% |  |  |  |  | Inhibition Rate of PAI-1 Activity (%) (recombinant human PAI-1 [1]; Compound Concentration 5 μM): 18%
2 | O=C(O)CCc1cc(-c2ccc(OC(F)(F)F)cc2)ccc1OCc1ccccc1 [Compound 3] | 68% |  |  |  |  | Inhibition Rate of PAI-1 Activity (%) (recombinant human PAI-1 [1]; Compound Concentration 5 μM): 35%
3 | CC(C)(C)c1ccc(COc2ccc(-c3ccc(OC(F)(F)F)cc3)cc2C=CC(=O)O)cc1 [Compound 4] | 78% |  |  |  |  | Inhibition Rate of PAI-1 Activity (%) (recombinant human PAI-1 [1]; Compound Concentration 5 μM): 84%
4 | CC(C)(C)c1ccc(COc2ccc(-c3ccc(OC(F)(F)F)cc3)cc2NC(=O)C(=O)[O-])cc1.[Na+] [Compound 6] | 94% |  |  |  |  | Inhibition Rate of PAI-1 Activity (%) (recombinant human PAI-1 [1]; Compound Concentration 5 μM): 83%
5 | CC(C)(C)c1ccc(COc2ccc(-c3ccc4c(c3)OCO4)cc2CC(=O)O)cc1 [Compound 10] | 65% |  |  |  |  | Inhibition Rate of PAI-1 Activity (%) (recombinant human PAI-1 [1]; Compound Concentration 5 μM): 32%; Inhibition Rate of PAI-1 Activity (%) (recombinant human PAI-1 [1]; Compound Concentration 25 μM): >99%
6 | Cc1cc(C)cc(COc2ccc(-c3ccc(OC(F)(F)F)cc3)cc2CC(=O)O)c1 [Compound 11] | 84% |  |  |  |  | Inhibition Rate of PAI-1 Activity (%) (recombinant human PAI-1 [1]; Compound Concentration 5 μM): 41%; Inhibition Rate of PAI-1 Activity (%) (recombinant human PAI-1 [1]; Compound Concentration 25 μM): 99%
7 | CC(C)(C)c1ccc(Oc2ccc(-c3ccc(OC(F)(F)F)cc3)cc2C=CC(=O)O)cc1 [Compound 12] | 94% |  |  |  |  | Inhibition Rate of PAI-1 Activity (%) (recombinant human PAI-1 [1]; Compound Concentration 5 μM): 92%
8 | O=C(O)CCc1cc(-c2ccc(OC(F)(F)F)cc2)ccc1Oc1ccc(C(=O)O)cc1 [Compound 14] | 3% |  |  |  |  | 
9 | O=C(O)C=Cc1cc(-c2ccc(OC(F)(F)F)cc2)ccc1Oc1ccc(OC(F)(F)F)cc1 [Compound 15] | 47% |  |  |  |  | Inhibition Rate of PAI-1 Activity (%) (recombinant human PAI-1 [1]; Compound Concentration 5 μM): 23%; Inhibition Rate of PAI-1 Activity (%) (recombinant human PAI-1 [1]; Compound Concentration 25 μM): 94%
10 | O=C(O)CCc1cc(-c2ccc(OC(F)(F)F)cc2)ccc1Oc1ccc(OC(F)(F)F)cc1 [Compound 16] | 46% |  |  |  |  | Inhibition Rate of PAI-1 Activity (%) (recombinant human PAI-1 [1]; Compound Concentration 5 μM): 23%; Inhibition Rate of PAI-1 Activity (%) (recombinant human PAI-1 [1]; Compound Concentration 25 μM): 96%
11 | O=C(O)CCc1cc(-c2ccc(OC(F)(F)F)cc2)ccc1OCc1ccc(F)cc1 [Compound 20] | 10% |  |  |  |  | Inhibition Rate of PAI-1 Activity (%) (recombinant human PAI-1 [1]; Compound Concentration 25 μM): 53%
12 | O=C(O)CCc1cc(-c2ccc(OC(F)(F)F)cc2)ccc1OCc1ccccc1C(F)(F)F [Compound 21] | 11% |  |  |  |  | Inhibition Rate of PAI-1 Activity (%) (recombinant human PAI-1 [1]; Compound Concentration 25 μM): 70%
13 | O=C(O)CCc1cc(-c2ccc(OC(F)(F)F)cc2)ccc1OCc1ccc(C(F)(F)F)cc1 [Compound 22] | 13% |  |  |  |  | Inhibition Rate of PAI-1 Activity (%) (recombinant human PAI-1 [1]; Compound Concentration 25 μM): 80%
14 | COc1ccccc1COc1ccc(-c2ccc(OC(F)(F)F)cc2)cc1CCC(=O)O [Compound 23] | 7% |  |  |  |  | Inhibition Rate of PAI-1 Activity (%) (recombinant human PAI-1 [1]; Compound Concentration 25 μM): 47%
15 | O=C(O)/C=C/c1cc(-c2ccc(OC(F)(F)F)cc2)ccc1OCc1ccccc1 [Compound 24] | 11% |  |  |  |  | Inhibition Rate of PAI-1 Activity (%) (recombinant human PAI-1 [1]; Compound Concentration 25 μM): 64%
16 | CC(C)(C)c1ccc(COc2ccc(-c3ccc(OC(F)(F)F)cc3)cc2/C=C/C(=O)O)cc1 [Compound 25] | 97% |  |  |  |  | Inhibition Rate of PAI-1 Activity (%) (recombinant human PAI-1 [1]; Compound Concentration 5 μM): 96%; Inhibition Rate of PAI-1 Activity (%) (recombinant human PAI-1 [1]; Compound Concentration 25 μM): 93%
17 | CCCCCCCCOc1ccc(-c2ccc(OC(F)(F)F)cc2)cc1N(CCCCc1ccccc1)C(=O)C(=O)O [Compound 653] |  | 43% | 95% | >99% | >99% | 
18 | CCCCCOc1cc(N(CCCCc2ccccc2)C(=O)C(=O)O)ccc1-c1ccc(OC(F)(F)F)cc1 [Compound 654] |  | 4% | 19% | >99% | >99% | 
19 | CCCCCOc1ccc(-c2ccc(OC(F)(F)F)cc2)cc1N(CCCOCc1ccccc1)C(=O)C(=O)O [Compound 655] |  | 3% | 0% | 44% | 97% | 
20 | O=C(O)C(=O)N(CCCCc1ccccc1)c1cc(-c2ccc(OC(F)(F)F)cc2)ccc1OCCCC1CCCCC1 [Compound 656] |  | 24% | 64% | 95% | 88% | 

Row | SMILES | Inhibition Rate of PAI-1 Activity (%) (recombinant human PAI-1 [1]; Compound Concentration 10 μM) | Inhibition Rate of PAI-1 Activity (%) (recombinant human PAI-1 [2]; compound concentration 0.1 μM) | Inhibition Rate of PAI-1 Activity (%) (recombinant human PAI-1 [2]; compound concentration 0.3 μM) | Inhibition Rate of PAI-1 Activity (%) (recombinant human PAI-1 [2]; compound concentration 1 μM) | Inhibition Rate of PAI-1 Activity (%) (recombinant human PAI-1 [2]; compound concentration 3 μM) | also measured
21 | CCCCCN(C(=O)C(=O)O)c1cc(-c2ccc(OC(F)(F)F)cc2)ccc1OCCCOc1ccccc1 [Compound 657] |  | 15% | 20% | 99% | >99% | 
22 | O=C(O)C(=O)N(CCCCc1ccccc1)c1cc(-c2ccc(OC(F)(F)F)cc2)ccc1OC1CCCC1 [Compound 658] |  | 9% | 20% | 97% | >99% | 
23 | O=C(O)C(=O)N(CCCCc1ccccc1)c1cc(-c2ccc(OC(F)(F)F)cc2)ccc1OC1CCCCCC1 [Compound 659] |  | 12% | 26% | >99% | 96% | 
24 | O=C(O)C(=O)N(Cc1ccc2ccccc2c1)c1ccc(-c2ccc(OC(F)(F)F)cc2)cc1 [Compound 661] |  | 6% | 11% | 27% | >99% | 
25 | Cc1cc(C)cc(COc2ccc(-c3ccc(OC(F)(F)F)cc3)cc2N(CCCCc2ccccc2)C(=O)C(=O)O)c1 [Compound 662] |  | 18% | 28% | 98% | 95% | 
26 | CC(C)(C)C1CCC(N(C(=O)C(=O)O)c2ccc(-c3ccc(OC(F)(F)F)cc3)cc2)CC1 (centres unmarked) [Compound 665] |  |  |  |  |  | Inhibition Rate of PAI-1 Activity (%) (recombinant human PAI-1 [2]; [3]): 9%; Inhibition Rate of PAI-1 Activity (%) (recombinant human PAI-1 [2]; [4]): 8%; Inhibition Rate of PAI-1 Activity (%) (recombinant human PAI-1 [2]; [5]): 67%; Inhibition Rate of PAI-1 Activity (%) (recombinant human PAI-1 [2]; [6]): >99%
27 | CC(C)(C)C1CCC(N(C(=O)C(=O)O)c2ccc(-c3ccc(OC(F)(F)F)cc3)cc2)CC1 (centres unmarked) [Compound 666] |  |  |  |  |  | Inhibition Rate of PAI-1 Activity (%) (recombinant human PAI-1 [2]; [3]): 0%; Inhibition Rate of PAI-1 Activity (%) (recombinant human PAI-1 [2]; [4]): 21%; Inhibition Rate of PAI-1 Activity (%) (recombinant human PAI-1 [2]; [5]): 89%; Inhibition Rate of PAI-1 Activity (%) (recombinant human PAI-1 [2]; [6]): 98%
28 | CCCCCCCCCCN(C(=O)C(=O)O)c1ccc(-c2ccc(OC(F)(F)F)cc2)cc1 [Compound 669] |  | 28% | 34% | >99% | >99% | 
29 | CCCCCOc1ccc(-c2ccc(OC(F)(F)F)cc2)cc1N(CCCCc1cc(C)ccc1C)C(=O)C(=O)O [Compound 670] |  | 6% | 55% | 97% | 94% | 
30 | O=C(O)C(=O)N(CCCCc1ccccc1)c1ccc(-c2ccc3ccccc3c2)cc1 [Compound 671] |  | 26% | 12% | 23% | 92% | 
31 | CCCCCOc1ccc(-c2cc(C)cc(C)c2)cc1N(CCCCc1ccccc1)C(=O)C(=O)O [Compound 672] |  | 3% | 15% | 92% | >99% | 
32 | O=C(O)C(=O)N(CCCCc1ccccc1)c1ccc(N2CCCC2)c(-c2ccc(OC(F)(F)F)cc2)c1 [Compound 673] |  | 0% | 15% | >99% | >99% | 
33 | O=C(O)C(=O)N(CCCCc1ccccc1)c1ccc(N2CCCCCC2)c(-c2ccc(OC(F)(F)F)cc2)c1 [Compound 674] |  | 5% | 55% | >99% | 98% | 
34 | O=C(O)C(=O)N(CCCCc1ccccc1)c1ccc(N2CCSCC2)c(-c2ccc(OC(F)(F)F)cc2)c1 [Compound 675] |  | 10% | 14% | 95% | >99% | 
35 | O=C(O)C(=O)N(CCCCc1ccccc1)c1cc(-c2ccc(OC(F)(F)F)cc2)ccc1OCCCCCO [Compound 676] |  | 7% | 4% | 60% | >99% | 
36 | CCCCCOc1ccc(-c2ccc(C)cc2)cc1N(CCCCc1ccccc1)C(=O)C(=O)O [Compound 677] |  | 19% | 17% | 93% | 98% | 
37 | CCCCCOc1ccc(-c2ccc(C(C)C)cc2)cc1N(CCCCc1ccccc1)C(=O)C(=O)O [Compound 678] |  | 19% | 33% | 97% | 94% | 
38 | CC(C)(C)C1CCC(CN(C(=O)C(=O)O)c2ccc(-c3ccc(OC(F)(F)F)cc3)cc2)CC1 (centres unmarked) [Compound 679] |  |  | 9% |  | >99% | Inhibition Rate of PAI-1 Activity (%) (recombinant human PAI-1 [2]; [3]): 6%; Inhibition Rate of PAI-1 Activity (%) (recombinant human PAI-1 [2]; [5]): 84%
39 | CC(C)(C)C1CCC(CN(C(=O)C(=O)O)c2ccc(-c3ccc(OC(F)(F)F)cc3)cc2)CC1 (centres unmarked) [Compound 680] |  |  | 9% |  | >99% | Inhibition Rate of PAI-1 Activity (%) (recombinant human PAI-1 [2]; [3]): 7%; Inhibition Rate of PAI-1 Activity (%) (recombinant human PAI-1 [2]; [5]): 77%
